Counter-ions that a name gives are not always drawn.
Molecular target: T1, recombinant guanylate cyclase reporter cell line (Rattus norvegicus, UniProt P19686+P20595)
T1 construct: expressed in transfected cells; host or cells: recombinant reporter cell line
T1 sequence (P19686 1-690): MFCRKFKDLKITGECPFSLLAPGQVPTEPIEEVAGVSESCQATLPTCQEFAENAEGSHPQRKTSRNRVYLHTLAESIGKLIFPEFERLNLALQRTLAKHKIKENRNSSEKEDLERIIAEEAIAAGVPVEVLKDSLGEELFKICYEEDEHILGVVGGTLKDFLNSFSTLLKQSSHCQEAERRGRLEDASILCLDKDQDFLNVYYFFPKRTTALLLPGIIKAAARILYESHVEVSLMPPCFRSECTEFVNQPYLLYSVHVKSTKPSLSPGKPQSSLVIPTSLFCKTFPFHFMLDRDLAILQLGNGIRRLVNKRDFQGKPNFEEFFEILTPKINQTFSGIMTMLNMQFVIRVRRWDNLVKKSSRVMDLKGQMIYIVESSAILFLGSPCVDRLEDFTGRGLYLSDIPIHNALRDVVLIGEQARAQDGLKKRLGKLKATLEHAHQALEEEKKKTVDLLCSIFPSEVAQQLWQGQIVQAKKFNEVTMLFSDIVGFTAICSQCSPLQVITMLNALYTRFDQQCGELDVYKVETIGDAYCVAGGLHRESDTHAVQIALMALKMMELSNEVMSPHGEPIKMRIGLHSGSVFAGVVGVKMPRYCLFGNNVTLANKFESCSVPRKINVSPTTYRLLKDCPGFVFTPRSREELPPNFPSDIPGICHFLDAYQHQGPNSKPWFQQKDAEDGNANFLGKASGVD
T1 sequence (P20595 1-619): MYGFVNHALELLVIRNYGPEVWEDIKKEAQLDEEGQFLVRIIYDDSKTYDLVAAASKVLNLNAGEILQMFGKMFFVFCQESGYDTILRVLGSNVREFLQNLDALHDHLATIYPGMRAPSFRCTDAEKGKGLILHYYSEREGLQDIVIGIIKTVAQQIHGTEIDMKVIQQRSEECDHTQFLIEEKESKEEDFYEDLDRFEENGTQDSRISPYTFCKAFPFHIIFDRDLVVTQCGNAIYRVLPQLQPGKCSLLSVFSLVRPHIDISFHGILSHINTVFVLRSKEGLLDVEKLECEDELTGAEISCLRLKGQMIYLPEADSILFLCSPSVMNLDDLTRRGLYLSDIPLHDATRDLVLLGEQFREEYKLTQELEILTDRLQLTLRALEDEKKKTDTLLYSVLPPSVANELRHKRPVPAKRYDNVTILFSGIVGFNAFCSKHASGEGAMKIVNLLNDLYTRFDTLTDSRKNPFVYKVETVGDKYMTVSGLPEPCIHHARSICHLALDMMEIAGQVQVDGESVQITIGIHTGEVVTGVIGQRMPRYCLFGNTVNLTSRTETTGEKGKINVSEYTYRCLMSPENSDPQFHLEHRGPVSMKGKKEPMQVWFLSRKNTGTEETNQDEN
Test: Action on recombinant guanylate cyclase reporter cell line
Type: cell-based
Conditions: in some cases mean values from individual determinations
Method in brief: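 Read-out: MEC (minimal effective concentration) in cells. Reporter line carries recombinant sGC. Some values are averages of single runs.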

SMILES | MEC (minimal effective concentration) [µM]
COCC(N)CNC(=O)c1c(C)nc2c(OCc3c(F)cccc3F)cc(C)cn12 (single isomer, unassigned) [Example 242, ent-N-(2-Amino-3-methoxypropyl)-8-[(2,6-difluorobenzyl)oxy]-2,6-dimethylimidazo[1,2-a]-pyridine-3-carboxamide] | 0.30
COCC(N)CNC(=O)c1c(C)nc2c(OCc3c(F)cccc3F)cc(C)cn12 (single isomer, unassigned) [Example 243, ent-N-(2-Amino-3-methoxypropyl)-8-[(2,6-difluorobenzyl)oxy]-2,6-dimethylimidazo[1,2-a]-pyridine-3-carboxamide] | 1.00
Cc1nc2c(OCc3c(F)cccc3F)cccn2c1C(=O)NC(CN)CC(C(F)(F)F)C(F)(F)F (single isomer, unassigned; enantiomer a) [Example 7, ent-N-[1-Amino-5,5,5-trifluoro-4-(trifluoromethyl)pentan-2-yl]-8-[(2,6-difluorobenzyl)oxy]-2-methylimidazo[1,2-a]pyridine-3-carboxamide (Enantiomer A)] | 1.00
Cc1nc2c(OCc3c(F)cccc3F)cccn2c1C(=O)NC(CN)c1ccc(F)c(F)c1 (single isomer, unassigned; enantiomer a) [Example 12, ent-N-[2-Amino-1-(3,4-difluorophenyl)ethyl]-8-[(2,6-difluorobenzyl)oxy]-2-methylimidazo[1,2-a]-pyridine-3-carboxamide (Enantiomer A)] | 1.00
CCCC(C)(N)CNC(=O)c1c(C)nc2c(OCc3c(F)cccc3F)cc(Cl)cn12 (single isomer, unassigned; enantiomer a) [Example 245, ent-N-(2-Amino-2-methylpentyl)-6-chloro-8-[(2,6-difluorobenzyl)oxy]-2-methylimidazo[1,2-a]-pyridine-3-carboxamide (Enantiomer A)] | 0.10
COCC(N)CNC(=O)c1c(C)nc2c(OCc3c(F)cccc3F)cccn12 (single isomer, unassigned; enantiomer a) [Example 247, ent-N-(2-Amino-3-methoxypropyl)-8-[(2,6-difluorobenzyl)oxy]-2-methylimidazo[1,2-a]pyridine-3-carboxamide (Enantiomer A)] | 3.00
Cc1cc(OCc2c(F)cccc2F)c2nc(C)c(C(=O)NCC(C)(N)C3CC3)n2c1 (single isomer, unassigned; enantiomer a) [Example 260, ent-N-(2-Amino-2-cyclopropylpropyl)-8-[(2,6-difluorobenzyl)oxy]-2,6-dimethylimidazo[1,2-a]-pyridine-3-carboxamide (Enantiomer A)] | 0.10
Cc1nc2c(OCc3c(F)cccc3F)cccn2c1C(=O)NCC(C)(N)CCOCc1ccccc1 (single isomer, unassigned; enantiomer a) [Example 266, ent-N-[2-Amino-4-(benzyloxy)-2-methylbutyl]-8-[(2,6-difluorobenzyl)oxy]-2-methylimidazo[1,2-a]pyridine-3-carboxamide (Enantiomer A)] | 0.03
Cc1cc(OCc2c(F)cccc2F)c2nc(C)c(C(=O)NCC(C)(N)CO)n2c1 (single isomer, unassigned; enantiomer a) [Example 268, ent-N-(2-Amino-3-hydroxy-2-methylpropyl)-8-[(2,6-difluorobenzyl)oxy]-2,6-dimethylimidazo-[1,2-a]pyridine-3-carboxamide (Enantiomer A)] | 0.55
Cc1cc(OCc2c(F)cccc2F)c2nc(C)c(C(=O)NCC(C)(N)CCO)n2c1 (single isomer, unassigned; enantiomer a) [Example 271, ent-N-(2-Amino-4-hydroxy-2-methylbutyl)-8-[(2,6-difluorobenzyl)oxy]-2,6-dimethylimidazo[1,2-a]pyridine-3-carboxamide (Enantiomer A)] | 0.30
Cc1nc2c(OCc3c(F)cccc3F)cccn2c1C(=O)NCC(C)(N)CCO (single isomer, unassigned; enantiomer a) [Example 272, ent-N-(2-Amino-4-hydroxy-2-methylbutyl)-8-[(2,6-difluorobenzyl)oxy]-2-methylimidazo[1,2-a]-pyridine-3-carboxamide (Enantiomer A)] | 5.5
CCC(C)(N)CNC(=O)c1c(C)nc2c(OCc3c(F)cccc3F)cc(C(F)F)cn12 (single isomer, unassigned; enantiomer a) [Example 288, ent-N-(2-amino-2-methylbutyl)-8-[(2,6-difluorobenzyl)oxy]-6-(difluoromethyl)-2-methylimidazo[1,2-a]pyridine-3-carboxamide (Enantiomer A)] | 0.3

Further lines, results first:

MEC (minimal effective concentration) [µM] | SMILES
0.30 | Cc1cc(OCc2c(F)cccc2F)c2nc(C)c(C(=O)NC3CCC(N)C3)n2c1 (single isomer, unassigned) [Example 309, ent-N-(3-aminocyclopentyl)-8-[(2,6-difluorobenzyl)oxy]-2,6-dimethylimidazo[1,2-a]pyridine-3-carboxamide]
0.10 | Cc1cc(OCc2c(F)cccc2F)c2nc(C)c(C(=O)NCC(C)(N)Cc3ccccn3)n2c1 (single isomer, unassigned; enantiomer a) [Example 298, ent-N-[2-amino-2-methyl-3-(pyridin-2-yl)propyl]-8-[(2,6-difluorobenzyl)oxy]-2,6-dimethyl-imidazo[1,2-a]pyridine-3-carboxamide (Enantiomer A)]
0.10 | CCC(C)(N)CNC(=O)c1c(C)nc2c(OCc3c(F)ccc(F)c3F)cc(C)cn12 (single isomer, unassigned; enantiomer a) [Example 300, ent-N-(2-amino-2-methylbutyl)-2,6-dimethyl-8-[(2,3,6-trifluorobenzyl)oxy]imidazo[1,2-a]pyridine-3-carboxamide (Enantiomer A) hydrochloride]
3.00 | Cc1cc(OCc2c(F)cccc2F)c2nc(C)c(C(=O)NC3CCC3N)n2c1 (single isomer, unassigned; enantiomer a) [Example 328, ent-N-(2-aminocyclobutyl)-8-[(2,6-difluorobenzyl)oxy]-2,6-dimethylimidazo[1,2-a]pyridine-3-carboxamide (Enantiomer A)]
1.00 | Cc1cc(OCc2c(F)cccc2F)c2nc(C)c(C(=O)NC3CCC3(C)N)n2c1 (single isomer, unassigned; enantiomer a) [Example 332, ent-N-[2-amino-2-methylcyclobutyl]-8-[(2,6-difluorobenzyl)oxy]-2,6-dimethylimidazo[1,2-a]pyridine-3-carboxamide (Enantiomer A)]
0.30 | Cc1cc(OCc2c(F)cccc2F)c2nc(C)c(C(=O)NC3(C)CCC3(C)N)n2c1 (single isomer, unassigned; enantiomer a) [Example 336, ent-N-[(2-amino-1,2-dimethylcyclobutyl]-8-[(2,6-difluorobenzyl)oxy]-2,6-dimethylimidazo[1,2-a]pyridine-3-carboxamide (Enantiomer A)]
0.03 | CCC(C)(N)CNC(=O)c1c(C)nc2c(OCc3c(F)cccc3F)cc(C)cn12.Cl (single isomer, unassigned; enantiomer a) [Example 357, ent-N-(2-amino-2-methylbutyl)-8-[(2,6-difluorobenzyl)oxy]-2,6-dimethylimidazo[1,2-a]pyridine-3-carboxamide hydrochloride (Enantiomer A)]
1.00 | Cc1cc(OCc2c(F)cccc2F)c2nc(C)c(C(=O)NCC(N)C#N)n2c1 (single isomer, unassigned; enantiomer a) [Example 401, ent-N-(2-amino-2-cyanoethyl)-8-[(2,6-difluorobenzyl)oxy]-2,6-dimethylimidazo[1,2-a]pyridine-3-carboxamide (Enantiomer A)]

Source: patent US20150274719A1, “AMINO-SUBSTITUTED IMIDAZO[1,2-A]PYRIDINECARBOXAMIDES AND THEIR USE” (BAYER PHARMA AKTIENGESELLSCHAFT, priority 2012, published 2015)
